Structures are written as SMILES. Read-outs that look alike come from different tables or passages of the source. Marks after values point to notes of the source that are not given here.

In one series the test system is KM mice. In words: ED50 and LD50 test concerning anesthesia (sequential method) in mice. The conditions noted are these: for Mouse ED50: anesthesia (loss of righting reflex); for Mouse ED50 / Mouse LD50: caudal vein injection. It is filed as in vivo.
For series [1] the following is noted: rat plasma, 37° C.; for Sampling time/dissociation percent (%) 5 s / Sampling time/dissociation percent (%) 15 s / Sampling time/dissociation percent (%) 30 s: formula F derivatives.
Method: (§1) 0.1 ml samples were taken from each of the solutions, added respectively to 1 ml of blood plasma of rabbit (taken from New Zealand white rabbits, treated according to conventional methods, anticoagulated with heparin) or 1 ml of blood plasma of rat (taken from live SD rats, treated according to conventional methods, anticoagulated with heparin), homogeneously mixed, and placed in a thermostatic water bath at 37° C. for incubation with time being recorded. Samples were taken at different time points after the experiment began, and 2 ml of acetonitrile was immediately added. The samples were shaken and centrifuged for 5 min (15,000 rpm), and the supernatant was then taken for HPLC analysis.
Series [2] deals with New Zealand White rabbits. In words: ED50 and LD50 test concerning anesthesia (sequential method) in rabbits. It is filed as in vivo. The conditions noted are these: for TI index: TI=LD50/ED50; for LD50 / ED50: injection via ear vein; for LD50: death; for ED50: disappearance of righting reflex.
Method: (§2) Test samples for the experiment on rabbit were formulated to have corresponding concentrations based on the results from a preliminary test. […] Rats and mice were administered with samples having a fixed concentration of drugs, while the volume of administration altered according to actual situation. The volume of administration to rabbits was 1 mL/kg body weight.
(§3) ED50 and LD50 values concerning anesthesia were determined using a sequential method. Healthy KM mice (male), SD rats (male) and New Zealand White rabbits were used for test. […] For rabbits, the compounds were administered by injection at a constant rate via ear vein for 30 seconds. Before the test, a preliminary test was conducted to determine an approximate dosage (volume of administration) that leads to anesthetization (or death) of animals, which was set as the middle dosage in the formal test. […] The disappearance of righting reflex or death was used as indicators of pharmacological efficacy or toxicity, respectively. The formal test began with the administration of the middle dosage. If animals were anesthetized, a lower dosage was administered; if animals were not anesthetized, a higher dosage was administered, until the cycle was repeated for 3-4 times. LD50 and ED50 were calculated by a sequential method aot425 software. TI was calculated according to the following equation: TI=LD50/ED50.
The conditions of series [3]: rabbit plasma, 37° C.; for Sampling time/dissociation percent (%) 15 s / Sampling time/dissociation percent (%) 30 s: formula F derivatives.
Method: as §1
In a further series the test system is Kunming mice. In words: Latent period and persistent period of anesthesia in mice. The conditions noted are these: intravenous injection. It is filed as in vivo.
A further series has as its system SD rats. In words: ED50 and LD50 test concerning anesthesia (sequential method) in rats. It is filed as in vivo. The conditions noted are these: for Rat ED50: anesthesia (loss of righting reflex); for Rat ED50 / Rat LD50: caudal vein injection.
The conditions of series [4]: rats, 5 mg/kg intravenous, 5 min after administration.
Method: After 5 min of administration, 0.3 ml of venous blood was taken from the retrobulbar venous plexus of the rats, placed in heparinized tubes, and centrifuged at 11,000 rpm for 5 min. Blood plasma was separated, and the concentrations of the compounds in the blood plasma were determined by liquid chromatography-mass spectrometry.
Series [5] can be described thus: In vitro dissociation of the water soluble taxane derivatives in blood plasma of rabbit. It is filed as in vitro ADME, New Zealand white rabbits. Conditions: 37° C. The protocol: The obtained water soluble taxane derivatives were formulated as 0.2 mg/ml aqueous solutions. […] After 5 min, 20 min and 60 min of incubation, 0.2 ml of solutions were respectively taken from each of the samples, and added to acetonitrile (0.4 ml) cooled to −20° C. for precipitation of protein.

Series [6] can be described thus: In vitro dissociation of the water soluble taxane derivatives in blood plasma of rat. The conditions noted are these: 37° C. It is filed as in vitro ADME, SD rats. As for the experimental part: The obtained water soluble taxane derivatives were formulated as 0.2 mg/ml aqueous solutions. […] After 2 min, 5 min and 10 min of incubation, 0.2 ml of solutions were respectively taken from each of the samples, and added to acetonitrile (0.4 ml) cooled to −20° C. for precipitation of protein.

The subject of the next series is mice. Conditions: intravenous, equimolar amounts to propofol.
The mark [7] stands for this setting: 3 mg/ml solution, confirmation test.
Setting [8] is: 6 mg/ml solution, confirmation test.
Where [9] appears, read: dosage 2 * ED50, 3 mg/ml solution.
The mark [10] stands for this setting: dosage 2 * ED50, 6 mg/ml solution.
Where [11] appears, read: formula G derivatives, sampling time 15 s.

Method for KM mice: as §2, §3
Method for SD rats: as §2, §3

As for `CC(C)c1cccc(C(C)C)c1OC(=O)C(F)CCC(=O)[O-].[Na+]` (racemic) [Compound F1, propofol 4-carboxyl-2(R,S)-fluorovalerate sodium salt], in the series with KM mice (setting [7]), the “TI Mouse” value is 2.8, the “Mouse ED50” value is 18.6 mg/kg and the “Mouse LD50” value is on record as 52.3 mg/kg. Besides, in the series with KM mice (3 mg/ml solution, first test), the “TI Mouse” value is 3*, the “Mouse ED50” value came out at 20.8 mg/kg and the “Mouse LD50” value came to 63.4 mg/kg. Besides, in the series with KM mice (setting [8]), the “TI Mouse” value is listed as 3.3, the “Mouse ED50” value was 16.7 mg/kg and the “Mouse LD50” value was found to be 55.4 mg/kg. For the same molecule, in the series on KM mice (6 mg/ml solution, first test), the “TI Mouse” value is recorded as 2.7*, the “Mouse ED50” value is recorded as 18.2 mg/kg and the “Mouse LD50” value came to 49.7 mg/kg. In series [1] (sampling time 5 s), the “Sampling time/dissociation percent (%) 5 s” value was found to be 64.1%. Further, the “Sampling time/dissociation percent (%) 15 s” value in [1] (sampling time 15 s) turned out to be 70.2%. Besides, the “Sampling time/dissociation percent (%) 30 s” value in series [1] was 86.7%. Further, in series [2], the TI index worked out at 2.8, the LD50 is 34.4 (32.1-36.5) mg/kg and the ED50 is reported as 12.2 (10.6-14.6) mg/kg. Also, the “Sampling time/dissociation percent (%) 15 s” value in series [3] (sampling time 15 s) is on record as 47.5%. Besides, the “Sampling time/dissociation percent (%) 30 s” value in [3] (sampling time 30 s) is on record as 75.5%. Moreover, in the series on Kunming mice (setting [9]), the “Latent Period” value turned out to be 18.6 ± 0.7 s and the “Persistent period” value is given as 349.7 ± 229.4 s. Further, in the series on Kunming mice (setting [10]), the “Latent Period” value is 15.2 ± 1.4 s and the “Persistent period” value was 523 ± 248 s. In the series with SD rats (3 mg/ml solution), the “TI Rat” value is reported as 3.0, the “Rat ED50” value amounted to 14.6 mg/kg and the “Rat LD50” value was found to be 44.1 mg/kg. Besides, in the series on SD rats (6 mg/ml solution), the “TI Rat” value was 3.7, the “Rat ED50” value is on record as 11.3 mg/kg and the “Rat LD50” value was 42.3 mg/kg.
Regarding `CC(=O)O[C@H]1C(=O)[C@@]2(C)[C@H]([C@H](OC(=O)c3ccccc3)[C@]3(O)C[C@H](OC(=O)[C@H](OC(=O)[C@H](F)CCN(C)C)[C@@H](NC(=O)c4ccccc4)c4ccccc4)C(C)=C1C3(C)C)[C@]1(OC(C)=O)CO[C@@H]1C[C@@H]2O.Cl` [Compound 01, 2′-O-[4-(N,N-dimethyl)amino-2(R)-fluorobutyryl]paclitaxel Hydrochloride], the “detection of the administered derivative in the blood plasma” value in [4] is “cannot be detected”. The “mean concentration of paclitaxel in the blood plasma” value in [4] is 1789 ng/mL. Besides, the dissociation percent in series [5] (5 min) stood at 76.5%; in [5] (20 min) it was 98.3%; in [5] (60 min), 100%; in [6] (2 min), 63.5%; in series [6] (5 min) it was 96.8%; in series [6] (10 min), 100%.
On to `CC(C)c1cccc(C(C)C)c1OC(=O)[C@H](F)CCN(C)C.Cl` [Compound E2, Propofol 4-(N,N-dimethyl)amino-2(R)-fluorobutyrate Hydrochloride], for which, in the series on KM mice (setting [7]), the “TI Mouse” value is on record as 3^, the “Mouse ED50” value worked out at 15.4 mg/kg and the “Mouse LD50” value was 46.9 mg/kg. Further, in the series on KM mice (3 mg/ml solution, first test), the “TI Mouse” value was 4*, the “Mouse ED50” value turned out to be 17.9 mg/kg and the “Mouse LD50” value is given as 71.8 mg/kg. In the series on KM mice (setting [8]), the “TI Mouse” value amounted to 3.7, the “Mouse ED50” value came out at 13.0 mg/kg and the “Mouse LD50” value is reported as 48.0 mg/kg. Further, in the series with KM mice (6 mg/ml solution, first test), the “TI Mouse” value is recorded as 3.6*, the “Mouse ED50” value amounted to 15.2 mg/kg and the “Mouse LD50” value is reported as 55.1 mg/kg. The dissociation percent in [1] (5 s) is given as 100%. In series [2], the TI index worked out at 3.5, the LD50 is 28 (23.0-34.2) mg/kg and the ED50 is given as 8 (5.7-10.5) mg/kg. Besides, in [3] (15 s), the dissociation percent was 97.7%. Besides, the dissociation percent in [3] (30 s) is 100%. Besides, in the series on Kunming mice (setting [9]), the “Latent Period” value was determined as 14.6 ± 0.9 s and the “Persistent period” value is given as 383.6 ± 242.1 s. Further, in the series on Kunming mice (setting [10]), the “Latent Period” value worked out at 14.2 ± 1.9 s and the “Persistent period” value came out at 543 ± 231 s. Also, in the series on SD rats (3 mg/ml solution), the “TI Rat” value is 3.8, the “Rat ED50” value was found to be 9.8 mg/kg and the “Rat LD50” value came out at 37.5 mg/kg. Also, in the series on SD rats (6 mg/ml solution), the “TI Rat” value worked out at 3.1, the “Rat ED50” value is reported as 10.1 mg/kg and the “Rat LD50” value is reported as 30.7 mg/kg.
In the case of `CC(C)c1cccc(C(C)C)c1OC(=O)C(F)CC(=O)[O-].[Na+]` [Compound F7, propofol 3-carboxyl-2(R)-fluorobutyrate sodium salt], the “TI Mouse” value is recorded as 2.6 with KM mice (setting [7]); 2.8* with KM mice (3 mg/ml solution, first test); 3.1 in the series on KM mice (setting [8]); 2.4* in the series with KM mice (6 mg/ml solution, first test). For the same molecule, the “Mouse ED50” value in the series on KM mice (setting [7]) came to 19.2 mg/kg; with KM mice (3 mg/ml solution, first test), 21.4 mg/kg; in the series with KM mice (setting [8]) it was 18.1 mg/kg; with KM mice (6 mg/ml solution, first test), 20.7 mg/kg. Further, the “Mouse LD50” value with KM mice (setting [7]) stood at 51.6 mg/kg; in the series with KM mice (3 mg/ml solution, first test), 59.8 mg/kg; in the series on KM mice (setting [8]) it was 56.6 mg/kg; in the series on KM mice (6 mg/ml solution, first test) it was 51.2 mg/kg. The “Sampling time/dissociation percent (%) 5 s” value in series [1] (sampling time 5 s) is listed as 58.8%. Moreover, the results for the “Sampling time/dissociation percent (%) 15 s” value in series [1] (sampling time 15 s) and in series [3] (sampling time 15 s) were 71.3% and 46.3%, respectively. The “Sampling time/dissociation percent (%) 30 s” value in [1] amounted to 85.4%; in series [3] (sampling time 30 s) it was 72.8%. In addition, the TI index in [2] is reported as 2.6. Besides, the LD50 in series [2] is given as 36.7 (33.8-39.4) mg/kg. In series [2], the ED50 was 13.9 (11.1-16.8) mg/kg. The figures for the “Latent Period” value with Kunming mice (setting [9]) and in the series on Kunming mice (setting [10]) were 20.2 ± 0.6 s and 16.2 ± 2.2 s, respectively. The results for the “Persistent period” value with Kunming mice (setting [9]) and in the series with Kunming mice (setting [10]) were 335.5 ± 218.1 s and 517 ± 231 s, respectively. Further, the “TI Rat” value in the series on SD rats (3 mg/ml solution) worked out at 3.0; in the series with SD rats (6 mg/ml solution) it was 3.5. The results for the “Rat ED50” value with SD rats (3 mg/ml solution) and in the series on SD rats (6 mg/ml solution) were 15.7 mg/kg and 12.5 mg/kg, respectively. Also, the “Rat LD50” value with SD rats (3 mg/ml solution) turned out to be 47.4 mg/kg; in the series on SD rats (6 mg/ml solution), 44.4 mg/kg.
With `CC(C)c1cccc(C(C)C)c1OC(=O)[C@@H](F)CCOP(=O)([O-])[O-].[Na+].[Na+]` [Compound G2, {1-[4-(2,6-diisopropylphenoxy)-4-oxo-3-(S)-3-fluoro-1-butyl]} phosphate monoester disodium salt], the “TI Mouse” value in the series with KM mice (setting [7]) was 3.0; with KM mice (3 mg/ml solution, first test), 2.8*; with KM mice (setting [8]) it was 2.3; in the series on KM mice (6 mg/ml solution, first test), 1.9*. For the same molecule, the “Mouse ED50” value came out at 19.8 mg/kg in the series on KM mice (setting [7]); 23.7 mg/kg with KM mice (3 mg/ml solution, first test); 22.8 mg/kg with KM mice (setting [8]); 25.6 mg/kg in the series on KM mice (6 mg/ml solution, first test). In addition, the “Mouse LD50” value came out at 60.4 mg/kg with KM mice (setting [7]); 65.7 mg/kg in the series with KM mice (3 mg/ml solution, first test); 48.7 mg/kg in the series with KM mice (6 mg/ml solution, first test). Further, in [1] (formula G derivatives, sampling time 5 s), the “Sampling time/dissociation percent (%) 5 S” value came out at 48.5%. Moreover, the entries for the “Sampling time/dissociation percent (%) 15 S” value in series [1] (setting [11]) and in [3] (setting [11]) were 69.7% and 37.2%, respectively. Also, the LD50 in series [2] was 38.7 (35.1-41.3) mg/kg. In series [2], the ED50 is listed as 14.7 (12.6-19.1) mg/kg. Besides, in [3] (formula G derivatives, sampling time 30 s), the “Sampling time/dissociation percent (%) 30 S” value was 54.3%. The “Latent Period” value stood at 16.3 ± 0.8 s in the series with Kunming mice (setting [9]) and 15.7 ± 2.3 s in the series on Kunming mice (setting [10]). Moreover, the “Persistent period” value in the series on Kunming mice (setting [9]) came out at 383.6 ± 242.1 s; in the series on Kunming mice (setting [10]), 571 ± 173 s. For the same molecule, the “TI Rat” value in the series on SD rats (3 mg/ml solution) is 3.3; in the series with SD rats (6 mg/ml solution), 2.8. For the same molecule, in the series with SD rats (6 mg/ml solution), the “Rat ED50” value amounted to 21.1 mg/kg.
Take `CC(C)c1cccc(C(C)C)c1OC(=O)CCCN(C)C.Cl` [J′-1, reference compound]: in the series on mice, the “latent period for anesthesia compared to propofol” value is reported as “much longer than those of propofol”, the “neurotoxic response after waking up” value was “transient hemiplegia after waking up” and the “persistent period for anesthesia compared to propofol” value is “much longer than those of propofol”.
With `CC(C)c1cccc(C(C)C)c1OC(=O)[C@H](F)CCN(C)C.Cl` [J′], in the series on mice, the “latent period for anesthesia compared to propofol” value is given as “almost equal to those of propofol”, the “neurotoxic response after waking up” value is reported as “no neurotoxic response was observed” and the “persistent period for anesthesia compared to propofol” value is listed as “almost equal to those of propofol”.
